Experimental findings from ChEMBL document CHEMBL4342418, “1,2,3-Triazole-containing hybrids as potential anticancer agents: Current developments, action mechanisms and structure-activity relationships” (Eur J Med Chem, 2019) are described below.

Values after ≈ are worked out from the molar mass of the structure shown.

Assay [1] concerns HT-29. Kind of assay: Antiproliferative activity against human HT-29 cells assessed as reduction in cell viability after 72 hrs by MTT assay. It counts as functional, cell-based. Particulars: HT-29, 72 h.
Assay [2] relates to MCF7. Kind of assay: Antiproliferative activity against human MCF7 cells assessed as reduction in cell viability after 72 hrs by MTT assay. It counts as functional, cell-based. Particulars: MCF7, 72 h.
For assay [3], the system named is MOLT-4. The experiment in a line: Antiproliferative activity against human MOLT4 cells assessed as reduction in cell viability after 72 hrs by MTT assay. It counts as functional, cell-based. Particulars: MOLT-4, 72 h.
Assay [4] deals with HEK293. Kind of assay: Cytotoxicity against HEK293 cells by MTT assay. It counts as cell-based. Particulars: Homo sapiens.
For assay [5], the system named is MDA-MB-231. Kind of assay: Antiproliferative activity against human MDA-MB-231 cells by MTT assay. It counts as functional, cell-based.
The test system of assay [6] is HBL-100. Kind of assay: Antiproliferative activity against human HBL100 cells assessed as reduction in cell viability after 48 hrs by MTT assay. It counts as functional, cell-based. Particulars: HBL-100, 48 h.
For assay [7], the system named is HCT-116. Kind of assay: Antiproliferative activity against human HCT116 cells assessed as reduction in cell viability after 48 hrs by MTT assay. It counts as functional, cell-based. Particulars: HCT-116, 48 h.
The subject of assay [8] is HT-29. The experiment in a line: Antiproliferative activity against human HT-29 cells assessed as reduction in cell viability after 48 hrs by MTT assay. It counts as functional, cell-based. To be noted: HT-29, 48 h.
Assay [9] has as its system A549. Kind of assay: Antiproliferative activity against human A549 cells assessed as reduction in cell viability after 48 hrs by MTT assay. It counts as functional, cell-based. Particulars: A549, 48 h.
The subject of assay [10] is MCF7. Kind of assay: Antiproliferative activity against human MCF7 cells assessed as reduction in cell viability after 48 hrs by SRB assay. To be noted: MCF7, 48 h. It counts as functional, cell-based.
Assay [11] has as its system A549. The experiment in a line: Antiproliferative activity against human A549 cells assessed as reduction in cell viability after 48 hrs by SRB assay. It counts as functional, cell-based. To be noted: A549, 48 h.
For assay [12], the system named is HCT-116. Kind of assay: Antiproliferative activity against human HCT116 cells assessed as reduction in cell viability after 48 hrs by SRB assay. It counts as functional, cell-based. To be noted: HCT-116, 48 h.
Assay [13] has as its system HT-29. The experiment in a line: Antiproliferative activity against human HT-29 cells assessed as reduction in cell viability after 48 hrs by SRB assay. To be noted: HT-29, 48 h. It counts as functional, cell-based.
Assay [14] has as its system HT-29. Kind of assay: Potency index, ratio of Sorafenib IC50 to test compound IC50 for antiproliferative activity against human HT-29 cells. It counts as functional.
For assay [15], the system named is MCF7. Kind of assay: Potency index, ratio of Sorafenib IC50 to test compound IC50 for antiproliferative activity against human MCF7 cells. It counts as functional.
Assay [16] deals with T47D. Kind of assay: Antiproliferative activity against human T47D cells by MTT assay. It counts as functional, cell-based.
For assay [17], the system named is hTERT-BJ. The experiment in a line: Cytotoxicity activity against human hTERT-BJ cells by MTT assay. It counts as cell-based.
Assay [18] deals with WiDr. The experiment in a line: Antiproliferative activity against human WiDr cells by MTT assay. It counts as functional, cell-based.
Assay [19] relates to A549. Kind of assay: cells. It counts as functional, cell-based. To be noted: Homo sapiens.
Description: Antiproliferative activity against human A549 cells by MTT assay
Assay [20] concerns HeLa. Kind of assay: Antiproliferative activity against human HeLa cells by MTT assay. It counts as functional, cell-based.
Assay [21] has as its system SW1573. The experiment in a line: Antiproliferative activity against human SW1573 cells by MTT assay. It counts as functional, cell-based.
Assay [22] has as its system HBL-100. The experiment in a line: Antiproliferative activity against human HBL100 cells by MTT assay. It counts as functional, cell-based.
The subject of assay [23] is IMR-32. The experiment in a line: Antiproliferative activity against human IMR32 cells by SRB assay. It counts as functional.
Assay [24] in a line: Antiproliferative activity against human MiaPaCa cells by SRB assay. It counts as functional. To be noted: MIA PaCa-2.
Assay [25] relates to MDA-MB-231. Kind of assay: Antiproliferative activity against human MDA-MB-231 cells by SRB assay. It counts as functional.
Assay [26] relates to HepG2. Kind of assay: Antiproliferative activity against human HepG2 cells by SRB assay. It counts as functional, cell-based.
Assay [27] concerns A549. Kind of assay: Antiproliferative activity against human A549 cells by SRB assay. It counts as functional, cell-based.
Assay [28] has as its system HL-60. Kind of assay: Antiproliferative activity against human HL60 cells assessed as reduction in cell viability after 48 hrs by MTT assay. To be noted: HL-60, 48 h. It counts as functional, cell-based.
The test system of assay [29] is MCF7. Kind of assay: Antiproliferative activity against human MCF7 cells by SRB assay. It counts as functional, cell-based.
Assay [30] has as its system T47D. Kind of assay: Antiproliferative activity against human T47D cells assessed as reduction in cell viability after 72 hrs by MTT assay. It counts as functional, cell-based.
Assay [31] has as its system HepG2. The experiment in a line: Antiproliferative activity against human HepG2 cells by MTT assay. It counts as functional, cell-based.
The test system of assay [32] is SK-OV-3. The experiment in a line: Antiproliferative activity against human SKOV3 cells by SRB assay. It counts as functional, cell-based.
Assay [33] relates to DU-145. The experiment in a line: Antiproliferative activity against human DU145 cells assessed as reduction in cell viability after 48 hrs by MTT assay. Particulars: DU-145, 48 h. It counts as functional, cell-based.
Assay [34] concerns KB. The experiment in a line: Antiproliferative activity against human KB cells by MTT assay. It counts as functional, cell-based.
Assay [35] deals with HeLa. Kind of assay: Antiproliferative activity against human HeLa cells by SRB assay. It counts as functional, cell-based.
For assay [36], the system named is MCF7-DOX. Kind of assay: Antiproliferative activity against human MCF7/Dox cells by SRB assay. It counts as functional, cell-based.
Assay [37] deals with MCF7. Kind of assay: Antiproliferative activity against human MCF7 cells assessed as reduction in cell viability after 48 hrs by MTT assay. It counts as functional, cell-based. Particulars: MCF7, 48 h.
For assay [38], the system named is DU-145. Kind of assay: Antiproliferative activity against human DU145 cells by SRB assay. It counts as functional, cell-based.
Assay [39] deals with SW480. Kind of assay: Antiproliferative activity against human SW480 cells assessed as reduction in cell viability after 48 hrs by MTT assay. It counts as functional, cell-based. Particulars: SW480, 48 h.
Assay [40] can be described thus: Antiproliferative activity against human SMCC7721 cells assessed as reduction in cell viability after 48 hrs by MTT assay. It counts as functional, cell-based.
For assay [41], the system named is PC-3. The experiment in a line: cells. It counts as functional, cell-based. To be noted: Homo sapiens, PC-3, 48 h.
Description: Antiproliferative activity against human PC3 cells assessed as reduction in cell viability after 48 hrs by MTT assay
Assay [42] deals with HGC-27. The experiment in a line: Antiproliferative activity against human HGC27 cells assessed as reduction in cell viability after 48 hrs by MTT assay. It counts as functional, cell-based. Particulars: HGC-27, 48 h.
Assay [43] deals with MCF7. Kind of assay: cells. To be noted: Homo sapiens. It counts as functional, cell-based.
Description: Antiproliferative activity against human MCF7 cells by MTT assay
Assay [44] concerns DU-145. The experiment in a line: Antiproliferative activity against human DU145 cells by MTT assay. It counts as functional, cell-based.

As to `CC(C)(C)c1ccc(Cn2cc(CNC3=CC(=O)c4ccccc4C3=O)nn2)cc1`, the IC50 in assay [1], in assay [2] and in [3] was 6.8 to 31.7 µM each time.
For `COC(=O)c1ccc(-n2nc(N)c(C(=O)NCCNC(=O)c3nn(-c4ccc(C(=O)OC)cc4)nc3N)n2)cc1`, the IC50 in [4] is above 50 µM; in assay [5] it was 12 µM.
For the molecule `C[C@@H]1CC[C@@]2(OC1)O[C@H]1C[C@H]3[C@@H]4CC=C5C[C@@H](OCc6cn(-c7ccccc7C#N)nn6)CC[C@]5(C)[C@H]4CC[C@]3(C)[C@H]1[C@@H]2C`, the IC50 in assay [6], in [7], in assay [8] and in assay [9] was 5.16 to 9.44 µM throughout.
For the molecule `O=C(/C=C/c1cn(-c2ccccc2)nc1-c1ccccc1)OCc1cn(-c2ccc([N+](=O)[O-])cc2)nn1`, the IC50 in assay [10], in assay [11], in [12] and in [13] was 1.76 to 9.46 µM each time.
For the molecule `CNC(=O)c1cc(Oc2ccc(-n3cc(-c4ccccc4F)nn3)cc2)ccn1`, the “Ratio IC50” value in assay [14] and in [15] was 6.2 - 131.2 in each case. The IC50 in [1] and in assay [2] was 0.2 to 0.84 µM in each case.
Regarding `C[C@@H]1CC[C@@]2(OC1)O[C@H]1C[C@H]3[C@@H]4CC=C5C[C@@H](OCc6cn(-c7ccccc7[N+](=O)[O-])nn6)CC[C@]5(C)[C@H]4CC[C@]3(C)[C@H]1[C@@H]2C`, the concentration for half-maximal inhibition (IC50) in assay [6], in [7], in assay [8] and in [9] was 5.16 to 9.44 µM throughout.
As to `C=CCC1CC(Cc2cn([C@@H](Cc3ccccc3)c3nc(C(=O)OC)co3)nn2)CC(O[Si](C)(C)C(C)(C)C)C1` (stereo partly specified), the IC50 in assay [16] was 3.1 to 6.6 µM; in assay [17], 53 µM; in assay [18] it was 3.1 to 6.6 µM; in assay [19], 3.1 to 6.6 µM; in assay [20], 3.1 to 6.6 µM; in assay [21] it was 3.1 to 6.6 µM. In assay [22], this molecule showed a concentration for half-maximal inhibition (IC50) of 3.1 to 6.6 µM.
With `N#Cc1ccccc1Cn1cc(CNc2ccc3oc(-c4ccccc4)cc(=O)c3c2)nn1`, the 50% growth inhibitory concentration (GI50) in [23], in [24] and in assay [25] was 0.11 to 1 µM in each case.
With `CC[C@@]1(O)C(=O)OCc2c1cc1n(c2=O)Cc2cc3ccccc3nc2-1` [CAMPTOTHECIN], the half-inhibitory concentration (IC50) in [10], in assay [11], in assay [12] and in [13] was 0.03 to 0.8 µM each time.
On to `C[C@@H]1CC[C@@]2(OC1)O[C@H]1C[C@H]3[C@@H]4CC=C5C[C@@H](O)CC[C@]5(C)[C@H]4CC[C@]3(C)[C@H]1[C@@H]2C` [DISOGENIN], for which the IC50 in assay [6], in [7], in [8] and in assay [9] was 10.8 to 13.3 µM each time.
`COc1cc([C@@H]2c3cc4c(cc3[C@@H](O[C@@H]3O[C@@H]5CO[C@@H](C)O[C@H]5[C@H](O)[C@H]3O)[C@H]3COC(=O)[C@H]23)OCO4)cc(OC)c1O` [ETOPOSIDE]: the IC50 in assay [26] lay in the range of 6.94 to 50 µM; in assay [27], 6.94 to 50 µM; in [28], 8.12 to 32.8 µM; in assay [29], 6.94 to 50 µM; in assay [31], 11.8 to 15.7 µM; in assay [32] it was 6.94 to 50 µM. Moreover, the IC50 in assay [33] is 9.8 µM; in assay [34] it was 11.8 to 15.7 µM; in assay [35], 6.94 to 50 µM; in assay [36] it was 6.94 to 50 µM; in [37], 0.31 to 32.8 µM; in [38] it was 6.94 to 50 µM. The IC50 in [9], in assay [39] and in assay [40] was 0.31 to 32.8 µM each time. Also, the results for the GI50 in assay [30] and in [2] were 7.9 µg/mL (≈ 13.4 µM) and 7.5 µg/mL (≈ 12.7 µM), respectively.
Consider `COc1ccc2c(c1)[nH]c1c(C)nccc12` [HARMINE], for which the IC50 in assay [41], in assay [2], in assay [8] and in [42] was 3.52 to 24.4 µM throughout.
As for `CC/C(=C(\c1ccccc1)c1ccc(OCCN(C)C)cc1)c1ccccc1` [TAMOXIFEN], the IC50 is above 50 µM in assay [4]; 10.9 to 18.6 µM in [43]; 10.9 to 18.6 µM in assay [19]; 10.9 to 18.6 µM in assay [20]; 10.9 to 18.6 µM in assay [44]; 11.2 µM in assay [5].
